In publication PMC7509217 (Cellular and Molecular Gastroenterology and Hepatology, 2020):

Target: rat ACC2 (acetyl-CoA carboxylase 2) (Rattus norvegicus, UniProt O70151)
Assay: citrate-activated ACC enzyme, […]bicarbonate incorporation into malonyl-CoA
Format: biochemical

rat ACC2 (acetyl-CoA carboxylase 2), sequence (O70151 1-2456): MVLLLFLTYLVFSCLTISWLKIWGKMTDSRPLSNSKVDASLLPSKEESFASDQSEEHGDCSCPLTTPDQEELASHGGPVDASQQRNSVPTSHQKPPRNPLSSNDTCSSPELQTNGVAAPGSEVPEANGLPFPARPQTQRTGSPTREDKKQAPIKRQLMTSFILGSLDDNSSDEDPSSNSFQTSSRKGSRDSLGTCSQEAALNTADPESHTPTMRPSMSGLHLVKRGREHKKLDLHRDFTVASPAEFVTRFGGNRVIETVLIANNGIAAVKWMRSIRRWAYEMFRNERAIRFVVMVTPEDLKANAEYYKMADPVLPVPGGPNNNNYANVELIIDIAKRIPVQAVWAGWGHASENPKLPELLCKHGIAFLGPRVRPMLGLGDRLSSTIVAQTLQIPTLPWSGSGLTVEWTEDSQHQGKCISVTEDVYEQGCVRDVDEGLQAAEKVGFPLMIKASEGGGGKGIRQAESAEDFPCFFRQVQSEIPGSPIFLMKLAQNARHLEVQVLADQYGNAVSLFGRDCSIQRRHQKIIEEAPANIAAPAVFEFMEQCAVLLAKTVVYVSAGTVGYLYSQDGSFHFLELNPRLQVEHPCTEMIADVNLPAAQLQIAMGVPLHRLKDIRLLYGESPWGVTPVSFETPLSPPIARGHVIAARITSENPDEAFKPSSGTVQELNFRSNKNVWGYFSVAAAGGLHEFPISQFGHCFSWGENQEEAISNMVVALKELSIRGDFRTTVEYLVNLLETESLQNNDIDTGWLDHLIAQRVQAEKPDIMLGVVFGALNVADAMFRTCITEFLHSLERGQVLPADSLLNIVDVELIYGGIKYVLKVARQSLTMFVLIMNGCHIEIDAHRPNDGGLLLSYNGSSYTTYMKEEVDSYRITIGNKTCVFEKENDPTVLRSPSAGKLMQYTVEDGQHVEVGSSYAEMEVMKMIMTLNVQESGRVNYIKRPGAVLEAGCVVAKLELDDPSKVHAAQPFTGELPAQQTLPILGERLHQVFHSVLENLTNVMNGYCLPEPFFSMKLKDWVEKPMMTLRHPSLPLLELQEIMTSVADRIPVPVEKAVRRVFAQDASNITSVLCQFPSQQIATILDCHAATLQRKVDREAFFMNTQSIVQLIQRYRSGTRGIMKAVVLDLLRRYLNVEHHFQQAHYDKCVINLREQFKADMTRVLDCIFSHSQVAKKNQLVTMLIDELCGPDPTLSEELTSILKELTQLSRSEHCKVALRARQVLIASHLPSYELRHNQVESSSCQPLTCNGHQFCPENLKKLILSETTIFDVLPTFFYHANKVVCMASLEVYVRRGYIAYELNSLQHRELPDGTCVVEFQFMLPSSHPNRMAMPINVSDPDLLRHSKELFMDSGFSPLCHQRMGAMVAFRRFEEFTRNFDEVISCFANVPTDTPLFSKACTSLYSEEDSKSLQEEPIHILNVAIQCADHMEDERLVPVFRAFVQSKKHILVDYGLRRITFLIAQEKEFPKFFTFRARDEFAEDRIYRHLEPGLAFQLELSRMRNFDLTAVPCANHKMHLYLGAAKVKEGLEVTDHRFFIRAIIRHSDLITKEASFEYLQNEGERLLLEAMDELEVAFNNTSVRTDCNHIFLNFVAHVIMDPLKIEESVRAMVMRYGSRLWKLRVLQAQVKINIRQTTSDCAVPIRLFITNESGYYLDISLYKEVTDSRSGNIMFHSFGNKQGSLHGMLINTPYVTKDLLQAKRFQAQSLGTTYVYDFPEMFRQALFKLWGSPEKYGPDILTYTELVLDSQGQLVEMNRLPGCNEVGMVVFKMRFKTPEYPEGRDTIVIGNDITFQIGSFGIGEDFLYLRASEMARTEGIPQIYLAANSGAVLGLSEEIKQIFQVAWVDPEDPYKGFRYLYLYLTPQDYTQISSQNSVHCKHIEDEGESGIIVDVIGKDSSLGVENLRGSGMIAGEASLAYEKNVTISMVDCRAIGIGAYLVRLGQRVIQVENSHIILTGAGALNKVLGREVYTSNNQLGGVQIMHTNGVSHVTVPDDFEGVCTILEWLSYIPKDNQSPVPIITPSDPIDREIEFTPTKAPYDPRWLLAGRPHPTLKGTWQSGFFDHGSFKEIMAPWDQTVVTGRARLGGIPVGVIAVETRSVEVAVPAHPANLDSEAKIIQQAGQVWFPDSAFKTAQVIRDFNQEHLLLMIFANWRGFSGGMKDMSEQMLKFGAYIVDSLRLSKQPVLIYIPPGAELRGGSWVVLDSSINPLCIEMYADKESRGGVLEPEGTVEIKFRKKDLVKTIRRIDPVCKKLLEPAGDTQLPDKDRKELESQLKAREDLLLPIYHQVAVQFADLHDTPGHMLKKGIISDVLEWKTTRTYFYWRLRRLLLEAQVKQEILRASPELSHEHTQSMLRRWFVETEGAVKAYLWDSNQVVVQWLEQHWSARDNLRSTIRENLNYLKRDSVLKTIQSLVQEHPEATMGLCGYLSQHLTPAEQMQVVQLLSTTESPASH

SMILES: COc1cc(C(=O)N2CCC3(CC2)CC(=O)c2c(cnn2C(C)C)C3)cc(-c2ccc(C(=O)O)cc2)n1 [PF-05221304]
- IC50: 8.2 ± 4.1 nM
